ChEMBL document CHEMBL1201862, “PubChem BioAssay data set” (2004)
Each block holds one compound with its values, some of them ahead of it. The source made the active and inactive calls. For most assays here, no stated cut-off is given here; in the data, actives have a measured IC50 and inactives only a lower limit.

Experiments:
HEK293 = assay: Fluorescence-based counterscreen for potentiators or agonists of NPY-Y2: cell-based high-throughput dose response assay to identify inhibitors of cyclic nucleotide gated ion channel (CNGC) activity. In this assay, the parental HEK293 cell line transfected with a cyclic-nucleotide gated ion channel (CNGC)-based cAMP sensor is used to measure inhibition of isoproterenol-induced CNGC activity by test compound.; format: functional; details: Homo sapiens;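 further: stimulus is 1 µM isoproterenol at EC100 plus PDE inhibitor Ro 20-1724 at 25 µM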
[1] = target: Neuropeptide Y receptor type 2 (Homo sapiens, UniProt P49146); assay: Fluorescence-based cell-based high-throughput dose response assay for agonists of NPY-Y2. [Related pubchem assays: 1703 (Screening assay (CNGC inhibitors).), 1359 (Screening assay (NPY-Y2 potentiators or agonists).), 1304 (Screening assay (NPY-Y1 potentiators or agonists).), 1710 (Screening assay (NPY-Y2 agonists).), 1791 (Summary AID.)]; format: functional
[2] = target: Neuropeptide Y receptor type 1 (Homo sapiens, UniProt P25929); assay: Fluorescence-based counterscreen for agonists of NPY-Y2: cell-based high-throughput dose response assay for agonists of NPY-Y1.; format: functional
[3] = target: T1, Heat shock 70 kDa protein 1A (Homo sapiens, UniProt P0DMV8); assay: small-molecule inhibition of Hsp70 – biochemical, TR-FRET (AID 786)
[4] = target: T1, Heat shock 70 kDa protein 1A; assay: small molecules displacing fluorescent ligand from Hsp70 – biochemical, fluorescence polarization, primary screen (AID 583)
[5] = target: T2, Tyrosine-protein phosphatase non-receptor type 7 (Homo sapiens, UniProt P35236); format: functional
T2 sequence (P35236 whole entry): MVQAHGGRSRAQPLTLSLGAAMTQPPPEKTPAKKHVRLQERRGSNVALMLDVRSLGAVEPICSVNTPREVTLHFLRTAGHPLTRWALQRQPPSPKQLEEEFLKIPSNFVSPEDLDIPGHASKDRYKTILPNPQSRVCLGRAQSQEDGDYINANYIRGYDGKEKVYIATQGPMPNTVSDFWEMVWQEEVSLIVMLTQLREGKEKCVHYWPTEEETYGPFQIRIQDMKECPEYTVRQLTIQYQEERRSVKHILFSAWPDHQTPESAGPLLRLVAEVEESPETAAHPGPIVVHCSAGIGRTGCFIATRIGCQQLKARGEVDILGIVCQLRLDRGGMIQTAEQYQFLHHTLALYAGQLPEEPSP

[6] = target: Glyceraldehyde-3-phosphate dehydrogenase (Homo sapiens, UniProt P04406)
[7] = target: Heat shock cognate 71 kDa protein (Homo sapiens, UniProt P11142); assay: In Vitro Hsc70 Dose Response Fluorescence Polarization Assay. [Related pubchem assays: 1072 ]
[8] = target: T1, Heat shock 70 kDa protein 1A; assay: inhibition of Hsp70 binding activity – biochemical, fluorescence polarization, SAR follow-up (AID 1072)
[9] = target: T3, Dual specificity protein phosphatase 6 (Rattus norvegicus, UniProt Q64346)
T3 sequence (Q64346 whole entry): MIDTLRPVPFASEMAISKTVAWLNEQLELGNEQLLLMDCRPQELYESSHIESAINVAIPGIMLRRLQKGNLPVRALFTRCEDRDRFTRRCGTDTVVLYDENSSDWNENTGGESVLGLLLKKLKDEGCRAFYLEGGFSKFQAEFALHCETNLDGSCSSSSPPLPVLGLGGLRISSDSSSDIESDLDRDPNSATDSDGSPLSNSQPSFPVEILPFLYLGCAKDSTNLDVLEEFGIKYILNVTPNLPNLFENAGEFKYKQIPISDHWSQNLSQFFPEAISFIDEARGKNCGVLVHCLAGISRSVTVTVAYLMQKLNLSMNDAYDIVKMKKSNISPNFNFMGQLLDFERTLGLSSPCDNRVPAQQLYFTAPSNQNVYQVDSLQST

[10] = target: T4, Alkaline phosphatase, tissue-nonspecific isozyme (Homo sapiens, UniProt P05186); assay: potency against alkaline phosphatase TNAP – biochemical, luminescent, dose response, SAR follow-up (AID 1056)
T4 sequence (P05186 whole entry): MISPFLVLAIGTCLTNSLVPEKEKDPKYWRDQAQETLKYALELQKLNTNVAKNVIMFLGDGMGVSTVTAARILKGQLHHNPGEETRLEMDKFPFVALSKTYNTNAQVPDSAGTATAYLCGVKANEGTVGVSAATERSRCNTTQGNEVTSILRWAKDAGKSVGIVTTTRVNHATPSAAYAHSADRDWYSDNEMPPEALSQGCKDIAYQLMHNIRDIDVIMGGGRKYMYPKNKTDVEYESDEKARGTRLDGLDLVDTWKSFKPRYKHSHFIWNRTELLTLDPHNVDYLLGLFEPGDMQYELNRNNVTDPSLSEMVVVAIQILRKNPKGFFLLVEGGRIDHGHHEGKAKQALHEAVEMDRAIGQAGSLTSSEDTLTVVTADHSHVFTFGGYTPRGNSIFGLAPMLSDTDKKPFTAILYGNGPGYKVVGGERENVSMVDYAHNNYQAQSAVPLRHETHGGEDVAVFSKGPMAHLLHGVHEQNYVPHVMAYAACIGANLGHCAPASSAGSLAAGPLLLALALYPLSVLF

[11] = target: T3, Dual specificity protein phosphatase 6; format: functional

T1 sequence (P0DMV8 whole entry): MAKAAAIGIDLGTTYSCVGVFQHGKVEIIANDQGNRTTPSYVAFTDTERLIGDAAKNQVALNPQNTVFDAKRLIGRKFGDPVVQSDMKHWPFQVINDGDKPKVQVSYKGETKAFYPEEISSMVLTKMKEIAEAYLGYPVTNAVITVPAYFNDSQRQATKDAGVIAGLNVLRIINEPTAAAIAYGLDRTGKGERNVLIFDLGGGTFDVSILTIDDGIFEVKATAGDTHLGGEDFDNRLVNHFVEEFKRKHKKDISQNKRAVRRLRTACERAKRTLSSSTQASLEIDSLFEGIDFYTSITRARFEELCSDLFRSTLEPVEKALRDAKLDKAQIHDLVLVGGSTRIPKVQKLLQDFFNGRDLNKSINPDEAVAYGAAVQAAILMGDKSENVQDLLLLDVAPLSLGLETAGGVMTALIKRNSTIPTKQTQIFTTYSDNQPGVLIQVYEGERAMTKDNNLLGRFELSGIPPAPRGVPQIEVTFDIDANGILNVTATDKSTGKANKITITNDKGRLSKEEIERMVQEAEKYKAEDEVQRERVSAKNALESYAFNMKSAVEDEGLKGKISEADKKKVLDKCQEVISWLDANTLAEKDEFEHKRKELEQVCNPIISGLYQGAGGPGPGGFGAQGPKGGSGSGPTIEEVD
Sequence of Neuropeptide Y receptor type 1 (P25929 whole entry): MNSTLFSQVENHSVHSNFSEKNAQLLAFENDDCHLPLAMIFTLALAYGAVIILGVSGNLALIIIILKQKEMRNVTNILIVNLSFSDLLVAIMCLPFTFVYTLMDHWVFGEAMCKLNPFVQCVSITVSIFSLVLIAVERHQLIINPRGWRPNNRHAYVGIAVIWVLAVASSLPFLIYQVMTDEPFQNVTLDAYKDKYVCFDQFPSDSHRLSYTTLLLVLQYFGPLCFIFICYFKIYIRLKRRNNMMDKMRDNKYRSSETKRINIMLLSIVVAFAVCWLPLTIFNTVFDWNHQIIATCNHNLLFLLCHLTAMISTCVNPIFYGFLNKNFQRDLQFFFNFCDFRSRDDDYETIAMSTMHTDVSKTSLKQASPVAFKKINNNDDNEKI
Sequence of Glyceraldehyde-3-phosphate dehydrogenase (P04406 whole entry): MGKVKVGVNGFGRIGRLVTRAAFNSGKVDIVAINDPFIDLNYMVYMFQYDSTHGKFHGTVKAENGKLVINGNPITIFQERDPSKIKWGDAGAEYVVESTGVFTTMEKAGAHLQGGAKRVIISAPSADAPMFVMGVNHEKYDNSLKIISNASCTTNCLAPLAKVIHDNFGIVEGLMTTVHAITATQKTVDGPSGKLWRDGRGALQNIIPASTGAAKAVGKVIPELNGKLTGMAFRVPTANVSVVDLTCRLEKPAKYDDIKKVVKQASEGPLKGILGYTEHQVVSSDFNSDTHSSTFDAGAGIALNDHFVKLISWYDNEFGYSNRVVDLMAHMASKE
Sequence of Heat shock cognate 71 kDa protein (P11142 whole entry): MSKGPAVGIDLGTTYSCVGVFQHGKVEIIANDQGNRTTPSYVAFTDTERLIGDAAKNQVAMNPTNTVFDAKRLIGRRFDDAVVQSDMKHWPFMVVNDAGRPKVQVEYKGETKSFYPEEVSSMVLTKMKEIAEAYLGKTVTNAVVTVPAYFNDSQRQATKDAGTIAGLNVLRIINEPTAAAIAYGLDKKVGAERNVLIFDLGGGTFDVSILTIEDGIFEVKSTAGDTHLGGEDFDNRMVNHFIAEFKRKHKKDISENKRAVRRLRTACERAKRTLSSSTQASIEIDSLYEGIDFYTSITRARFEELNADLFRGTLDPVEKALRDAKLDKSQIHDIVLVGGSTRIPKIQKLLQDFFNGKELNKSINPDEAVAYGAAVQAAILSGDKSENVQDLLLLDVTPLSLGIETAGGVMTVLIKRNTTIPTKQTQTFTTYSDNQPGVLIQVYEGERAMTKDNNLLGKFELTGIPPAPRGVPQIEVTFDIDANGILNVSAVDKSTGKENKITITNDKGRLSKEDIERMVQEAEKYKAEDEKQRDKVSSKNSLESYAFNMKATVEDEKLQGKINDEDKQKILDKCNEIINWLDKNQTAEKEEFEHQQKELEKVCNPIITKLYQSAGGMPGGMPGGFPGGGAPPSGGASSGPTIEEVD
Sequence of Neuropeptide Y receptor type 2 (P49146 whole entry): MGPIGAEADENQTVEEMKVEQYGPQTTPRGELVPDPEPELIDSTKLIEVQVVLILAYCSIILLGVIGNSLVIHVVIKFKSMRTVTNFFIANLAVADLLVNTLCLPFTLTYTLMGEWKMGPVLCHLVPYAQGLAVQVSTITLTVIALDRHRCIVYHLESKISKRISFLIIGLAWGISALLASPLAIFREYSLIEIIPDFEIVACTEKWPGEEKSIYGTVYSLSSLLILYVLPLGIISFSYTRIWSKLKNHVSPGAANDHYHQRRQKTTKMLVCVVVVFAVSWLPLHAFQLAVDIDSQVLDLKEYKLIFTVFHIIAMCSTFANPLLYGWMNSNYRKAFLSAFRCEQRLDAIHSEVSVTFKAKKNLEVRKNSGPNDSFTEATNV

SMILES: Cc1sc2nc(SCc3ccc(C(=O)O)cc3)n(Cc3ccco3)c(=O)c2c1C
EC50 (HEK293): > 35.4 µM (not active)
EC50 [1]: > 35.4 µM (not active)
EC50 [2]: > 35.4 µM (not active)

IC50 [3]: > 100 µM (not active)
IC50 [4]: > 100 µM (not active)
SMILES: Cc1cc(NC(=O)CSc2ncnc3ccccc23)no1

IC50 [5]: > 100 µM (not active)
IC50 [6]: > 100 µM (not active)
IC50 [7]: > 100 µM (not active)
IC50 [8]: > 100 µM (not active)
IC50 [9]: > 100 µM (inactive)
IC50 [10]: > 100 µM (inactive)
IC50 [11]: > 100 µM (inactive)
SMILES: O=C(O)c1ccc(N2C(=O)c3ccccc3C2=O)cc1
